Columns and labels:
human AQP3 (HsAQP3) = biological target: T1, human AQP3 (HsAQP3) (Homo sapiens, UniProt Q92482); experiment: oocyte swelling assay, osmotic water permeability (Pf); format: cell-based
T1 construct: cDNA heterologously expressed in Xenopus laevis oocytes (10 ng cRNA)
T1 sequence (Q92482 1-292): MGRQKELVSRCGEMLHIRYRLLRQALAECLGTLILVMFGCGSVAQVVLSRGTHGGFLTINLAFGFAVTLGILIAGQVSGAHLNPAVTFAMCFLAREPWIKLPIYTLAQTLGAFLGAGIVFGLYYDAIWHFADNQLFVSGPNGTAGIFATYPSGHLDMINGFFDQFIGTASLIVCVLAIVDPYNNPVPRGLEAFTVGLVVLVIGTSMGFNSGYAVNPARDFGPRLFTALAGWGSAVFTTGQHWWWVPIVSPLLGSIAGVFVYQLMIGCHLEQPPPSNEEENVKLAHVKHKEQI

Aqp3a (SaAqp3a) = biological target: T2, Aqp3a (SaAqp3a) (Sparus aurata, UniProt A0A671Y259); experiment: as above; format: cell-based
T2 construct: cDNA heterologously expressed in Xenopus laevis oocytes (10 ng cRNA); calculated monomer mass 33 kDa
T2 sequence (A0A671Y259 1-302): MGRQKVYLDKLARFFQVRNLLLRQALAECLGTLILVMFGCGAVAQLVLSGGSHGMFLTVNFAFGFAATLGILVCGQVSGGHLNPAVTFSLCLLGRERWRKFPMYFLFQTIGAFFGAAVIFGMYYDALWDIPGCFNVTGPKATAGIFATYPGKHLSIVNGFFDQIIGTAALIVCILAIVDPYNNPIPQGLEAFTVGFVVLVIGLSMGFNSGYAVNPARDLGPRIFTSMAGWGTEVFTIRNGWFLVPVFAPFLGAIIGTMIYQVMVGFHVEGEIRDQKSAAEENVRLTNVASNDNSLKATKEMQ

inhibition at 10 µM (human AQP3 (HsAQP3)): 66 ± 4%
inhibition at 10 µM (Aqp3a (SaAqp3a)): 76 ± 4%
SMILES: O=C(Nc1csc([N+](=O)[O-])c1)Nc1c(Cl)cccc1Cl [DFP00173]

Source: PMC11395232, “Aquaporin-3a Dysfunction Impairs Osmoadaptation in Post-Activated Marine Fish Spermatozoa” (International Journal of Molecular Sciences, 2024)
